The results in this text go back to ChEMBL document CHEMBL1156829 (Proc Natl Acad Sci U S A, 2008).

Data set [1] relates to Plasmodium falciparum. In words: NOVARTIS: Inhibition of Plasmodium falciparum 3D7 (drug-susceptible) proliferation in erythrocyte-based infection assay. In kind it is functional, organism-based. The conditions noted are these: Plasmodium falciparum, 3D7.
Data set [2] deals with Plasmodium falciparum. In words: NOVARTIS: Inhibition of Plasmodium falciparum W2 (drug-resistant) proliferation in erythrocyte-based infection assay. In kind it is functional, organism-based. The conditions noted are these: Plasmodium falciparum, W2; read-out: EC50.
Data set [3] in a line: NOVARTIS: Cytotoxicity against human hepatocellular carcinoma cell line (Huh7). Format: toxicity, cell-based, Huh-7. The conditions noted are these: Huh7 cells (hepatocellular carcinoma cell line).

Structures are written as SMILES. pEC50: −log10 of the molar value.

A word on the pEC50: it is the negative decadic logarithm of the EC50, by convention in mol/L. The term CC50 denotes the concentration giving 50% cytotoxicity. Low readings indicate harm at low concentration, high ones better tolerance by the cells. As to `COc1ccc(CCN2CCC(NCc3cccc(N(C)C)c3)CC2)cc1`, the pEC50 was 6.09 with Plasmodium falciparum [1] and 5.97 in the data set with Plasmodium falciparum [2]. In addition, the CC50 in data set [3] is greater than 10000 nM.
The matching figures for `CCOC(=O)c1c(NC(=O)CSc2nnc(CNC(=O)c3cccc(C)c3)n2Cc2ccccc2)sc2c1CCCC2`: less than 5.96, less than 5.84 and greater than 14000 nM.
In the same order, the values of `COc1cc(CNc2cc(OCCOc3ccc(Cl)cc3)cc(C(=O)NC3CCN(Cc4ccccc4)CC3)c2)ccc1OCc1ccccc1` are 6.04, less than 5.90 and greater than 12100 nM.
In the same order, the values of `O=S(=O)(c1ccccc1)N1CCN(CC2CNCCO2)CC1` (configuration not stated) are 6.12, 6.48 and 3220 nM.
In the case of `C=CCC1(Nc2ccccc2)CCCCC1`, the pEC50 in the data set on Plasmodium falciparum [1] is less than 5.90; in the data set with Plasmodium falciparum [2], less than 5.98. Besides, the CC50 in data set [3] is greater than 10000 nM.
In the same order, the values of `CCCCNc1cc(C)nc(NCc2ccccc2)n1` are 6.03, 5.99 and greater than 10000 nM.
In the same order, the values of `O=C(Nc1nccs1)c1cc(-c2cccnc2)nc2ccc(Br)cc12` are 5.97, less than 4.98 and greater than 100000 nM.
The matching figures for `c1ccc2c(NCCc3c[nH]cn3)c3ccccc3nc2c1`: 5.76, 5.61 and 23300 nM.
Turning to `CC(=NO)c1ccc2c(c1)C(C)(C)CCC2(C)C`, the pEC50 in the data set on Plasmodium falciparum [1] was 5.45; in the data set on Plasmodium falciparum [2], 5.41. In data set [3], this compound registered a CC50 of 37100 nM.
The matching figures for `COc1cc(C=NNc2nc3nonc3nc2Nc2ccc(Cl)cc2)ccc1O`: less than 5.90, 5.99 and greater than 10000 nM.
In the same order, the values of `C/C=C1/C[C@H]2[C@@H](OC)Nc3cc(O)c(OC)cc3C(=O)N2C1` are 5.99, 6.06 and 8490 nM.
In the same order, the values of `CCc1c(C)nc(SCC(=O)NNC(C)=O)nc1O` are less than 5.90, less than 5.99 and greater than 10000 nM.
As for `O=C(NCc1ccccc1)c1cnc(NCCCn2ccnc2)nc1NCC1CCCCC1`, the results for the pEC50 in the data set with Plasmodium falciparum [1] and in the data set with Plasmodium falciparum [2] were 6.51 and 5.98, respectively. The same compound gave a CC50 in data set [3] greater than 10000 nM.
In the same order, the values of `O=C(CSc1nc2ccccc2[nH]1)Nc1ccc2c(c1)OCO2` are less than 5.90, less than 5.98 and greater than 10000 nM.
In the same order, the values of `Fc1ccccc1Nc1nc(NCc2ccccc2)c2ccccc2n1` are 6.33, 6.04 and 8860 nM.
The matching figures for `CCN1CCN(C2CCN(Cc3cc4ccc(F)cc4n(CCSc4ccccc4)c3=O)CC2)CC1`: 6.15, 6.25 and 5480 nM.
`CCCn1c(SCCNC(=O)NCC)nc(-c2ccccc2)c1-c1ccccc1`: the pEC50 in the data set with Plasmodium falciparum [1] was less than 5.85; with Plasmodium falciparum [2], less than 5.99. Also, the CC50 in data set [3] was greater than 10000 nM.
On to `CCC(O)CN(c1ccccc1)c1ccccc1` (configuration not stated), for which the negative-log EC50 (pEC50) in the data set with Plasmodium falciparum [1] is less than 5.90; with Plasmodium falciparum [2], less than 5.99. The CC50 in data set [3] is greater than 10000 nM.
The matching figures for `C/C(=C\c1ccccc1)CN(C(=O)c1ccc(C(C)(C)C)cc1)C(C)C`: 6.66, 6.27 and greater than 5250 nM.
Consider `O=C(C1CCN(c2cccc3c2C(=O)N(C2CC2)C3=O)CC1)N1CCC(O)(c2ccc(Cl)cc2)CC1`, for which the pEC50 in the data set with Plasmodium falciparum [1] was less than 5.90; in the data set on Plasmodium falciparum [2], less than 5.99. This compound returned a CC50 in data set [3] greater than 10000 nM.
Consider `CCOc1ccc(-n2nc(C(=O)NCCCN(C)Cc3ccccc3)c3ccccc3c2=O)cc1`, for which the pEC50 is less than 4.95 in the data set with Plasmodium falciparum [1] and 4.99 in the data set with Plasmodium falciparum [2]. For the same compound, the CC50 in data set [3] is greater than 100000 nM.
The matching figures for `CCCCCN1/C(=C\C=C\c2n(CCCCC)c3cc(Cl)c(Cl)cc3[n+]2CC)N(CC)c2cc(Cl)c(Cl)cc21`: less than 5.89, less than 5.98 and greater than 10000 nM.
With `CCCCCCN(C(=O)c1ccc(C(C)(C)C)cc1)C(CC)c1nc2ccccc2c(=O)n1-c1ccc(F)cc1` (configuration not stated), the pEC50 in the data set with Plasmodium falciparum [1] is 6.10; with Plasmodium falciparum [2] it was 5.99. Moreover, the CC50 in data set [3] was greater than 10000 nM.
The matching figures for `CCC(c1nc2ccccc2c(=O)n1-c1cccc(Cl)c1)N(CCc1ccccc1)C(=O)c1ccc(F)cc1` (configuration not stated): 6.57, 7.16 and 656 nM.
The matching figures for `O=C1C(Cc2ccccc2)N=C2c3ccccc3N=C(SCc3ccc(Cl)cc3)N12` (configuration not stated): less than 5.90, less than 5.98 and greater than 10000 nM.
In the same order, the values of `COc1ccccc1Cn1c(SCc2ccc(Cl)cc2)nc2ccc(Br)cc2c1=O` are less than 5.94, less than 5.98 and greater than 10000 nM.
Turning to `CC(C)(C)c1ccc(Oc2ccc(N3C(=O)C4CC=CCC4C3=O)cc2)cc1` (configuration not stated), the pEC50 in the data set on Plasmodium falciparum [1] was less than 5.90; in the data set on Plasmodium falciparum [2], less than 5.99. The compound further yielded a CC50 in data set [3] greater than 10000 nM.
The matching figures for `CCCNC(=O)CCCCCSc1nc2ccccc2c(=O)n1-c1ccc(F)cc1`: 6.11, less than 5.93 and greater than 11500 nM.
In the same order, the values of `CS(=O)(=O)N(CCc1ccccc1)CC(O)CN1CCC(CNC(=O)NC(c2ccccc2)c2ccccc2)CC1` (configuration not stated) are less than 5.82, 5.99 and greater than 10000 nM.
In the same order, the values of `O=C(Nc1ccc(F)c(F)c1)c1ccccc1[N+](=O)[O-]` are less than 6.04, 5.97 and greater than 10000 nM.
Turning to `Cc1ccc(-c2nc3cc(NC(=O)c4ccc(Cl)cc4Cl)ccc3o2)cc1`, the pEC50 in the data set on Plasmodium falciparum [1] is less than 6.06; with Plasmodium falciparum [2], less than 5.98. Besides, the CC50 in data set [3] was greater than 10000 nM.
On to `COc1cc(NC(=O)/C=C/c2ccccc2Cl)cc(OC)c1OC`, for which the pEC50 in the data set on Plasmodium falciparum [1] was 6.06; with Plasmodium falciparum [2] it was 5.98. For the same compound, the CC50 in data set [3] is greater than 10000 nM.
For `CCCCCc1ccc(-c2ccc(/C(C=[N+](C)C)=C\N(C)C)cc2)cc1`, the pEC50 with Plasmodium falciparum [1] was 6.22; in the data set with Plasmodium falciparum [2], 5.98. This compound also returned a CC50 in data set [3] greater than 10000 nM.
In the same order, the values of `CC(=O)Nc1ccccc1-c1nnn(CC(N)=O)n1` are less than 4.98, less than 4.98 and greater than 100000 nM.
The matching figures for `Cc1c2ccccc2c(-c2ccccc2)c2ccccc12`: 5.91, 6.20 and 6000 nM.
The matching figures for `CCCSc1nc(N)c(NC(=O)c2ccco2)c(=O)[nH]1`: less than 6.44, less than 5.99 and greater than 10000 nM.
Consider `O=C1C(Sc2nnc[nH]2)=CC(=NS(=O)(=O)c2cccs2)c2ccccc21`, for which the pEC50 in the data set on Plasmodium falciparum [1] was 5.82; in the data set with Plasmodium falciparum [2], 6.15. Moreover, in data set [3], the CC50 worked out at 6910 nM.
In the same order, the values of `COC(=O)c1c(-c2c(Cl)cccc2Cl)noc1C=CNc1ccc(Cl)cc1` are less than 5.75, 4.98 and greater than 100000 nM.
The matching figures for `COc1ccccc1-n1c(/C=C/c2cc(Br)ccc2O)nc2ccccc2c1=O`: less than 5.90, less than 5.98 and greater than 10000 nM.
In the same order, the values of `c1ccc(-c2ccc(CNc3ccc4cn[nH]c4c3)cc2)cc1` are less than 5.90, 5.98 and greater than 10000 nM.
As to `COc1cc2nc(C3CCC3)n(NC(=O)c3cccc(F)c3)c(=O)c2cc1OC`, the figures for the pEC50 in the data set with Plasmodium falciparum [1] and in the data set on Plasmodium falciparum [2] were less than 5.90 and less than 5.98, respectively. Besides, in data set [3], the CC50 is greater than 10000 nM.
The matching figures for `CCCCNC(=O)c1ccc2c(c1)N=C(c1cccnc1)N(CCN1CCOCC1)C2`: less than 5.90, less than 5.97 and greater than 10400 nM.
In the same order, the values of `CC(C)CC1C(c2ccc(Cl)cc2)C(C(=O)c2ccccc2)C2(C(=O)Nc3ccc(Br)cc32)N1C(=O)NCc1ccccc1` (configuration not stated) are 6.11, less than 5.99 and greater than 10000 nM.
In the same order, the values of `CCOC(=O)C1=C(C)N=c2sc(=Cc3ccc(I)o3)c(=O)n2C1c1ccccc1Cl` (configuration not stated) are 5.88, 6.24 and greater than 5490 nM.
Take `COc1ccc(C2C(C(=O)Nc3cc(C)on3)c3ccccc3C(=O)N2C2CCCCC2)cc1` (configuration not stated): the pEC50 in the data set with Plasmodium falciparum [1] was 6.05; in the data set with Plasmodium falciparum [2], less than 5.99. The compound further registered a CC50 in data set [3] greater than 10000 nM.
In the same order, the values of `CCOc1cc(C(Nc2cc(C)ccn2)c2ccc3cccnc3c2O)ccc1OCc1ccccc1` (configuration not stated) are less than 5.87, 5.99 and greater than 10000 nM.
Regarding `Cc1ccc2nc(-c3ccccc3)cc(C(=O)Nc3ccc(Cl)cc3)c2c1`, the pEC50 with Plasmodium falciparum [1] is less than 5.79; with Plasmodium falciparum [2], 5.98. For the same compound, the half-maximal cytotoxic concentration (CC50) in data set [3] is greater than 10000 nM.
In the same order, the values of `C=CCNC(=O)c1ccc2c(c1)N=C(/C=C/c1ccccc1)N(CCc1cccc(OC)c1)C2` are 5.87, 5.98 and greater than 10000 nM.
In the same order, the values of `ClC12CC3CC(C1)CC(n1nnc4ccccc41)(C3)C2` are less than 5.90, less than 5.99 and greater than 10000 nM.
The matching figures for `Cc1cccc(NC(=O)Nc2cccnc2)c1NC(=O)Nc1cccnc1`: less than 5.90, less than 5.98 and greater than 10000 nM.
As to `CC(=O)Oc1ccc(C(=O)C(C(C)=O)c2ccccc2)c(OC(C)=O)c1` (configuration not stated), the pEC50 is less than 5.86 in the data set with Plasmodium falciparum [1] and less than 5.99 in the data set with Plasmodium falciparum [2]. This compound also showed a CC50 in data set [3] greater than 10000 nM.
The matching figures for `CCC(/C=C1\Sc2ccc(OC)cc2N1CCCS(=O)(=O)O)=C\c1sc2ccc(OC)cc2[n+]1CCCS(=O)(=O)O`: 6.33, 5.98 and 10000 nM.
In the same order, the values of `COc1cccc(OC)c1C(=O)Nn1c(-c2cccc(C)c2)nc2ccccc2c1=O` are less than 5.90, less than 5.99 and greater than 10000 nM.
In the same order, the values of `CC(C)(C)C(/C=C/c1ccc(Cl)cc1Cl)n1nnnc1C1(Nc2ccc(Cl)cc2)CCCCC1` (configuration not stated) are less than 5.90, less than 5.98 and greater than 10000 nM.
